Measured values published in US20240101540A1, “TARGETED PROTEIN DEGRADATION OF PARP14 FOR USE IN THERAPY” (Ribon Therapeutics, Inc., priority 2022, published 2024).
Counter-ions that a name gives are not always drawn.

Molecular target: T1, HiBiT tagged PARP14 (Homo sapiens, UniProt Q460N5)
T1 construct: engineered to contain a HiBiT tag on both alleles of the PARP14 gene; endogenous in cells; host or cells: Jurkat cells stably transfected with LgBiT (Promega), PARP14 locus edited by CRISPR/Cas9
Test: HiBiT assay for the degradation of PARP14 (HiBiT tagged PARP14 in LgBiT expressing Jurkat cells, 2 or 24 hours)
Assay type: cell-based
Conditions: Assay B (Example B): HiBiT tagged PARP14 degradation in LgBiT expressing Jurkat cells, read-out: DC50
How it was run: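 Jurkat cells stably expressing LgBiT with CRISPR knock-in of C-terminal HiBiT on both PARP14 alleles, 5,000 cells/well, treated with compound dose-response at 37 °C for 2 or 24 h. Live Cell Substrate luminescence normalised to 0.1% DMSO wells; DC50 from 4-parameter fit with floating top, bottom, Hill.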

T1 sequence (Q460N5 whole entry): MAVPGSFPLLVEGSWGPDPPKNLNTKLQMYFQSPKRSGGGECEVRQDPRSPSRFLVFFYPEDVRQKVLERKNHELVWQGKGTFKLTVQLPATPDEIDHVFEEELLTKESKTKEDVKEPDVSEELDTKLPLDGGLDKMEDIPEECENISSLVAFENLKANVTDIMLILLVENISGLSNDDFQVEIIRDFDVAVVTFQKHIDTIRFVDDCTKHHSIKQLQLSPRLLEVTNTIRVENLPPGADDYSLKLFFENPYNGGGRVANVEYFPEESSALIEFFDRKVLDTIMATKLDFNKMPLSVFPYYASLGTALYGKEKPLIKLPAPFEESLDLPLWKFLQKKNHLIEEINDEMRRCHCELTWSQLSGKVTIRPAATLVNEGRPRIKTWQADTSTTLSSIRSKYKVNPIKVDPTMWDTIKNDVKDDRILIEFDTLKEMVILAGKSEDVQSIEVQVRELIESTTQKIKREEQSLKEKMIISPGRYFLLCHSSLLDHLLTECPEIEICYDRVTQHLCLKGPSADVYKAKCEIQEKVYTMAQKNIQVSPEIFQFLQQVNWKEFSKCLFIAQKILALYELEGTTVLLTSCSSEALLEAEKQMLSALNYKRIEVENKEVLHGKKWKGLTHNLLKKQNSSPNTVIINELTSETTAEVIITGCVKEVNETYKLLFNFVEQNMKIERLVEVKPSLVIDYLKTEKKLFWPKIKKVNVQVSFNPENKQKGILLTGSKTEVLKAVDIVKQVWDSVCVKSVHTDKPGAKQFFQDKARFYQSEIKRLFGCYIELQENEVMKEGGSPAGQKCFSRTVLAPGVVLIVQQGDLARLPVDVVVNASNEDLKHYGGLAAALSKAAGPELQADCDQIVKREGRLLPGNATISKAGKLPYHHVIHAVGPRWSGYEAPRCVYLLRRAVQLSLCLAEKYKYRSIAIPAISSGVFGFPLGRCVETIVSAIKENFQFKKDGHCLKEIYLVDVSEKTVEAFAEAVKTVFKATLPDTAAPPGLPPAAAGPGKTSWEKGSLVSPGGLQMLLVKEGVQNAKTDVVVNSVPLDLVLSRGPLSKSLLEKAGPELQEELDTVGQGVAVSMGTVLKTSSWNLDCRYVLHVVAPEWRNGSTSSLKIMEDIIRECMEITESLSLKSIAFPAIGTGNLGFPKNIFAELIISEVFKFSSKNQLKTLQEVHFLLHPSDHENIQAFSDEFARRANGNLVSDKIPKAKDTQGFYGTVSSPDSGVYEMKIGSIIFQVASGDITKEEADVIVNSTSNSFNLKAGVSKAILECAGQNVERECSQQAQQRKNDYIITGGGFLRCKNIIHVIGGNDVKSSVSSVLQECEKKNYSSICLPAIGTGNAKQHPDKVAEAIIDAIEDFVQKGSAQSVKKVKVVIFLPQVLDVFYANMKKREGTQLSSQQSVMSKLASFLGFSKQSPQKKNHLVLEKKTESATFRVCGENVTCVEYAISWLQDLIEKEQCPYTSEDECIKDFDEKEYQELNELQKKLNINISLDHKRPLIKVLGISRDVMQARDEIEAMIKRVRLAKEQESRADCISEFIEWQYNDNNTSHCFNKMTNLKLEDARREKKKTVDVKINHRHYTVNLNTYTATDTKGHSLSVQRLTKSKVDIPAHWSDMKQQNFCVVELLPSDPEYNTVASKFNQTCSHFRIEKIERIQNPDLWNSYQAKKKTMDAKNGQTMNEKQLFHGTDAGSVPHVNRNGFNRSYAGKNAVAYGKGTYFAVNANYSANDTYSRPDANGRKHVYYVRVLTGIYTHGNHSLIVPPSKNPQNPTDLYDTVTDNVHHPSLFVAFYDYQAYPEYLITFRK

| Compound | DC50 [nM] |
| --- | --- |
| Cn1nc(N2CCC(=O)NC2=O)c2cc(F)c(C3CCN(CCN4CCC(COc5cc(F)c6c(=O)[nH]c(CSC7CCOCC7)nc6c5)CC4)CC3)cc21 [Example 207, 1-(5-fluoro-6-(1-(2-(4-(((5-fluoro-4-oxo-2-(((tetrahydro-2H-pyran-4-yl)thio)methyl)-3,4-dihydroquinazolin-7-yl)oxy)methyl)piperidin-1-yl)ethyl)piperidin-4-yl)-1-methyl-1H-indazol-3-yl)dihydropyrimidine-2,4(1H,3H)-dione formate] | < 30 |
| O=C1CCN(c2ccc(C3CCN(CCN4CCC(COc5cc(F)c6c(=O)[nH]c(CSC7CCOCC7)nc6c5)CC4)CC3)c(F)c2)C(=O)N1 [Example 208, 1-(3-fluoro-4-(1-(2-(4-(((5-fluoro-4-oxo-2-(((tetrahydro-2H-pyran-4-yl)thio)methyl)-3,4-dihydroquinazolin-7-yl)oxy)methyl)piperidin-1-yl)ethyl)piperidin-4-yl)phenyl)dihydropyrimidine-2,4(1H,3H)-dione] | < 30 |
| O=C1CCN(c2cnc3cc(N4CCN(CCN5CCC(COc6cc(F)c7c(=O)[nH]c(CSC8CCOCC8)nc7c6)CC5)CC4)ccn23)C(=O)N1 [Example 209, 1-(7-(4-(2-(4-(((5-fluoro-4-oxo-2-(((tetrahydro-2H-pyran-4-yl)thio)methyl)-3,4-dihydroquinazolin-7-yl)oxy)methyl)piperidin-1-yl)ethyl)piperazin-1-yl)imidazo[1,2-a]pyridin-3-yl)dihydropyrimidine-2,4(1H,3H)-dione diformate] | < 30 |
| O=C1CCN(c2cncc3c(N4CCN(CCN5CCC(COc6cc(F)c7c(=O)[nH]c(CSC8CCOCC8)nc7c6)CC5)CC4)cccc23)C(=O)N1 [Example 210, 1-(8-(4-(2-(4-(((5-fluoro-4-oxo-2-(((tetrahydro-2H-pyran-4-yl)thio)methyl)-3,4-dihydroquinazolin-7-yl)oxy)methyl)piperidin-1-yl)ethyl)piperazin-1-yl)isoquinolin-4-yl)dihydropyrimidine-2,4(1H,3H)-dione] | < 30 |
| O=C1CCN(c2cnc3cc(C4CCN(CCN5CCC(COc6cc(F)c7c(=O)[nH]c(CSC8CCOCC8)nc7c6)CC5)CC4)ccn23)C(=O)N1 [Example 211, 1-(7-(1-(2-(4-(((5-fluoro-4-oxo-2-(((tetrahydro-2H-pyran-4-yl)thio)methyl)-3,4-dihydroquinazolin-7-yl)oxy)methyl)piperidin-1-yl)ethyl)piperidin-4-yl)imidazo[1,2-a]pyridin-3-yl)dihydropyrimidine-2,4(1H,3H)-dione] | < 30 |
| Cn1nc(N2CCC(=O)NC2=O)c2cc(F)c(N3CCN(CCN4CCC(COc5cc(F)c6c(=O)[nH]c(CSC7CCOCC7)nc6c5)CC4)CC3)cc21 [Example 212, 1-(5-fluoro-6-(4-(2-(4-(((5-fluoro-4-oxo-2-(((tetrahydro-2H-pyran-4-yl)thio)methyl)-3,4-dihydroquinazolin-7-yl)oxy)methyl)piperidin-1-yl)ethyl)piperazin-1-yl)-1-methyl-1H-indazol-3-yl)dihydropyrimidine-2,4(1H,3H)-dione] | < 30 |
| O=C1CCC(Nc2ccc(N3CCN(CC4CCN(CCOc5cc(F)c6c(=O)[nH]c(CSC7CCOCC7)nc6c5)CC4)CC3)c(F)c2)C(=O)N1 (centres unmarked) [Example 213, 3-((3-fluoro-4-(4-((1-(2-((5-fluoro-4-oxo-2-(((tetrahydro-2H-pyran-4-yl)thio)methyl)-3,4-dihydroquinazolin-7-yl)oxy)ethyl)piperidin-4-yl)methyl)piperazin-1-yl)phenyl)amino)piperidine-2,6-dione] | < 30 |
| O=C1CCC(Nc2ccc(N3CCC(N4CCC(N5CCC(COc6cc(F)c7c(=O)[nH]c(CSC8CCOCC8)nc7c6)CC5=O)CC4)CC3)c(F)c2)C(=O)N1 (centres unmarked) [Example 214, 3-((3-fluoro-4-(4-(((5-fluoro-4-oxo-2-(((tetrahydro-2H-pyran-4-yl)thio)methyl)-3,4-dihydroquinazolin-7-yl)oxy)methyl)-2-oxo-[1,4′:1′,4″-terpiperidin]-1″-yl)phenyl)amino)piperidine-2,6-dione formate] | < 30 |
